Laboratory results taken from patent US20220401408A1, “COMPOSITIONS AND METHODS FOR RESCUING RETINAL AND CHOROIDAL STRUCTURE AND FUNCTION” (AUCKLAND UNISERVICES LIMITED, priority 2019, published 2022).

Tests used:
hyperglycemic rats = test: ERG in hyperglycemic rat diabetic retinopathy model; format: in vivo, SD rats (spontaneously hyperglycemic strain)
Description: Hyperglycemic Rat Diabetic Retinopathy Model—A spontaneously hyperglycemic strain of SD rats, which developed clinical signs of diabetic retinopathy within 4 weeks of birth were identified and isolated within the Vernon Jansen Animal Research Unit, Faculty of Medical and Health Sciences at the University of Auckland. The identification of these rats presenting with hyperglycemia and microaneurysms provided an opportunity to treat a complex, chronic disease model and assess the treatment effect based upon objective, measurable endpoints, despite lacking precise information on the etiology of the disease. Inbreeding was carried out over three generations and eyes were screened for abnormalities between 4-8 weeks of age. Additional information about these rats is presented as supplementary information. Glucose levels were tested in non-fasting rats (Lee J J, Yi H Y, Yang J W, Shin J S, Kwon J H, Kim C W. Characterization of streptozotocin-induced diabetic rats and pharmacodynamics of insulin formulations. Biosci Biotechnol Biochem. 2003; 67:2396-401) using a Freestyle Optium Glucometer (Abbott Laboratories Ltd., UK) and Freestyle Optium glucose strips.
(§1) Ten rats per group were the selected (10 normal SD and 10 hyperglycemic) grown to 5 weeks of age and assessed using OCT and ERG. The hyperglycemic rat group was then split into two subgroups of five, with one subgroup fed tonabersat once daily for 14 days from weeks 5 to 7 at a low dose level of 0.28 mg/kg in 0.5 g peanut butter, with the other subgroup fed 0.5 g peanut butter only. All animals were assessed again using ERG and OCT at 8 weeks of age before euthanizing animals and removing the eyes for immunohistochemical analysis. Data groups were randomized prior to the statistical comparison. In summary, normal SD and hyperglycemic rats were analyzed with OCT and ERG at 5 weeks of age; the hyperglycemic rats were then split into two groups and fed the vehicle or tonabersat for 14 days during weeks 6 and 7 of age. At week 8, animals were again assessed with ERG and OCT and tissues collected for immunohistochemical analysis. Four tonabersat-treated rats were, however, left until 3 months of age before final ERG and OCT and tissue collection.
Electroretinogram Recording—The procedure was performed as described previously. Vessey K A, Wilkinson-Berka J L, Fletcher E L. Characterization of retinal function and glial cell response in a mouse model of oxygen-induced retinopathy. J Comp Neurol. 2011; 519:506-27. Essentially, SD rats were dark-adapted overnight for 12-14 hours before the ERG recording. For the dry AMD, the ERG baseline was recorded for all groups before light damage and at time points after the light damage insult (24 hours, 1 week, 2 weeks and 3 months post intense light). For the DR model, ERGs were recorded at 5 weeks of age to compare normal SD and hyperglycemic rat retinal function. Tonabersat treated and vehicle control hyperglycemic rats were assessed again at 8 weeks of age. After dark adaptation, rats were anaesthetized by an intraperitoneal injection of a combination of ketamine (75 mg/kg, Parnell Technologies, New Zealand) and domitor (0.5 mg/kg, Pfizer, New Zealand). A dim red light generated by a light-emitting diode (λmax=650 nm) was used during manipulations of dark-adapted animals. The corneas were maintained hydrated with 1% carboxymethylcellulose sodium (Celluvisc, Allergan, USA) during ERG recording. Right and left eye ERGs were recorded using gold ring electrodes (Roland Consult Stasche & Finger GmbH, Germany). A U-shaped active electrode was kept in contact with the center of the cornea. […] Normal body temperature was maintained to avoid temperature-driven ERG amplitude fluctuation by placing animals on a 37° C. heated pad. Full-field ERG responses were elicited by a twin-flash ([…] stimulus interval) generated from a photographic flash unit (Nikon SB900 flash, Japan), via a Ganzfeld sphere. […]

GFAP, Connexin43, Iba-1 = test: Immunohistochemical labelling of GFAP, Iba-1 and Connexin43 in hyperglycemic rat retina; format: in vivo, SD rats (spontaneously hyperglycemic strain); settings: dosed daily for 14 days, 8 weeks of age
Method: as §1
Tissue Collection and Processing—At the end of the final OCT recording rats was deeply anesthetized using a combination of ketamine (75 mg/kg, Parnell Technologies, New Zealand) and domitor (0.5 mg/kg, Pfizer, New Zealand). Animals were perfused transcardially with saline for 2-3 min followed by 30 min perfusion with 4% paraformaldehyde in a 0.1 M phosphate buffer, pH 7.4 (PB). Eyes were dissected from the orbit and the eyecups further immersion fixed in 4% paraformaldehyde, 30 min before washing in PB. Tissues were then cryo-protected by taking them though 10% and 20% sucrose/PB solutions at room temperature for 30 min each, before soaking in 30% sucrose/PB at 4° C. overnight. The tissue was then embedded in optimum cutting temperature compound (Sakura Finetek, Torrance, USA) for cryosectioning (16 μm section thickness) in the vertical plane using a Leica CM3050 S cryostat (Leica, Germany). Sections were collected on Superfrost Plus slides (Labserv, New Zealand) for immunohistochemical labelling. For the DR animals we collected spleen, pancreas, liver, heart and kidneys from randomly selected vehicle-injected animals (see supplementary information).
Immunohistochemical Labelling of Tissue Sections—Frozen tissue sections were air-dried at room temperature for 10-15 min and washed with 0.1 M PB. Sections were encircled with a PAP pen (Invitrogen, New Zealand) to form incubation wells and blocked with 6% normal goat serum or donkey serum (Invitrogen, USA), 1% bovine serum albumin (BSA) and 0.5% Triton X-100 in 0.1 M PB for 1 hour at room temperature. […]

[1] = 0.28 mg/kg once daily 14 days, week 8, p<0.001
[2] = 0.28 mg/kg once daily 14 days, week 8, p<0.01
[3] = significantly less than untreated, p<0.001

CC(=O)c1ccc2c(c1)[C@H](NC(=O)c1ccc(F)c(Cl)c1)[C@H](O)C(C)(C)O2 [tonabersat, N-[(3S,4S)-6-acetyl-3-hydroxy-2,2-dimethyl-3,4-dihydrochromen-4-yl]-3-chloro-4-fluorobenzamide]
mixed ERG a-wave, maximum intensity (hyperglycemic rats; 0.28 mg/kg once daily 14 days, 8 weeks, untreated −370 V): -630 µV
implicit times (hyperglycemic rats; 0.28 mg/kg once daily 14 days, week 8): not different
mixed b-wave signals (hyperglycemic rats; 0.28 mg/kg once daily 14 days, week 8, all intensities, p<0.001): significantly recovered
mixed ERG a-wave vs untreated (hyperglycemic rats; 0.28 mg/kg once daily 14 days, week 8, intensities 0.1-2.1 cd·s/m2, p<0.001): significantly higher
rod PII amplitude (hyperglycemic rats; [1]): significantly recovered
rod PIII amplitude (hyperglycemic rats; [1]): significantly recovered
cone PII amplitude (hyperglycemic rats; [2]): significantly recovered
summed OPs amplitude (hyperglycemic rats; [2]): significantly recovered
mixed b-wave, maximum intensity (hyperglycemic rats; 0.28 mg/kg once daily 14 days, week 8, untreated controls 400 V): 700 µV
retinal function compared to vehicle hyperglycemic rats (hyperglycemic rats; 0.28 mg/kg oral once daily 14 days (weeks 5 to 7), week 8): significantly recovered
inflammation (labeling for GFAP, Iba-1, Connexin43) (GFAP, Connexin43, Iba-1): reduced inflammation
Connexin43 labelling, quantification (GFAP, Connexin43, Iba-1; [3]): recovering to normal
GFAP labelling, quantification (GFAP, Connexin43, Iba-1; [3]): recovering to normal
Iba-1 labelling, quantification (GFAP, Connexin43, Iba-1; [3]): recovering to normal
